These results are taken from US9901573B2, “Compositions, methods, and kits for regulating energy metabolism” (NuSirt Sciences, Inc., priority 2012, dated 2018).

The test system of assay [1] is C2C12 myotubes. Description: Fatty acid oxidation (O2 consumption response to palmitate) in myotubes. Format: cell-based. Conditions: vs control. The procedure:
Cell Culture: C2C12 and 3T3-L1 preadipocytes (American Type Culture Collection) were plated at a density of 8000 cells/cm^2 (10 cm^2 dish) and grown in Dulbecco's modified eagle's medium (DMEM) containing 10% fetal bovine serum (FBS), and antibiotics (growth medium) at 37° C. in 5% CO2. Confluent 3T3-L1 preadipocytes were induced to differentiate with a standard differentiation medium consisting of DMEM medium supplemented with 10% FBS, 250 nM dexamethasone, 0.5 mM 3-Isobutyl-1-methylxanthine (IBMX) and 1% penicillin-streptomycin. Preadipocytes were maintained in this differentiation medium for 3 days and subsequently cultured in growth medium. Cultures were re-fed every 2-3 days to allow >90% cells to reach fully differentiation before conducting chemical treatment. For differentiation of C2C12 cells, cells were grown to 100% confluence, transferred to differentiation medium (DMEM with 2% horse serum and 1% penicillin-streptomycin), and fed with fresh differentiation medium every day until myotubes were fully formed (3 days). Fatty acid oxidation: Cellular oxygen consumption was measured using a Seahorse Bioscience XF24 analyzer (Seahorse Bioscience, Billerica, Mass.) in 24-well plates at 37° C., as described by Feige et al (1) with slight modifications. Cells were seeded at 40,000 cells per well, differentiated as described above, treated for 24 hours with the indicated treatments, washed twice with non-buffered carbonate-free pH 7.4 low glucose (2.5 mM) DMEM containing carnitine (0.5 mM), equilibrated with 550 μL of the same media in a non-CO2 incubator for 45 minutes, and then inserted into the instrument for 15 minutes of further equilibration, followed by O2 consumption measurement. Three successive baseline measurements at five-minute intervals were taken prior to injection of palmitate (200 μM final concentration). Four successive 5-minute measurements of O2 consumption were then conducted, followed by 10 minute re-equilibration and another 3-4 5-minute measurements. This measurement pattern was then repeated over a 4-6 hour period. Data for each sample were normalized to the pre-palmitate injection baseline for that sample and expressed as % change from that baseline. […] The area under of the curve of O2 consumption change from baseline for each sample was then calculated and used for subsequent analysis.

Assay [2] deals with C2C12 myotubes. Briefly: Mitochondrial biogenesis (mitochondrial mass, NAO probe). In kind it is cell-based. Conditions: FIG. 13. The procedure: (§1) Cell Culture: C2C12 and 3T3-L1 preadipocytes (American Type Culture Collection) were plated at a density of 8000 cells/cm^2 (10 cm^2 dish) and grown in Dulbecco's modified eagle's medium (DMEM) containing 10% fetal bovine serum (FBS), and antibiotics (growth medium) at 37° C. in 5% CO2. Confluent 3T3-L1 preadipocytes were induced to differentiate with a standard differentiation medium consisting of DMEM medium supplemented with 10% FBS, 250 nM dexamethasone, 0.5 mM 3-Isobutyl-1-methylxanthine (IBMX) and 1% penicillin-streptomycin. Preadipocytes were maintained in this differentiation medium for 3 days and subsequently cultured in growth medium. Cultures were re-fed every 2-3 days to allow >90% cells to reach fully differentiation before conducting chemical treatment. For differentiation of C2C12 cells, cells were grown to 100% confluence, transferred to differentiation medium (DMEM with 2% horse serum and 1% penicillin-streptomycin), and fed with fresh differentiation medium every day until myotubes were fully formed (3 days). Mitochondrial biogenesis: Mitochondrial biogenesis was assessed as change in mitochondrial mass, as previously described (2). The mitochondrial probe NAO (Invitrogen, Carlsbad, Calif.) was used to analyze mitochondrial mass by fluorescence (excitation 485 nm and emission 520 nm) and quantitative data was obtained with a fluorescence microplate reader (Synergy HT, BioTek Instruments, Winooski, Vt.). The intensity of fluorescence was expressed as arbitrary units per μg protein and normalized to control values within each assay.

The subject of another assay is Phospho-AMPKα (Thr172). Description: Phospho-AMPKα (Thr172) Western blot in myotubes. Format: cell-based. Conditions: C2C12 myotubes, FIG. 11. As to the method:
as §1, with “days).” for “days). Mitochondrial biogenesis: Mitochondrial biogenesis was assessed as change in mitochondrial mass, as previously described (2). The mitochondrial probe NAO (Invitrogen, Carlsbad, Calif.) was used to analyze mitochondrial mass by fluorescence (excitation 485 nm and emission 520 nm) and quantitative data was obtained with a fluorescence microplate reader (Synergy HT, BioTek Instruments, Winooski, Vt.). The intensity of fluorescence was expressed as arbitrary units per μg protein and normalized to control values within each assay.”
Western blot: The Phospho-AMPKα (Thr172)- and Sirt1 (mouse specific)-antibody was obtained from Cell Signaling (Danvers, Mass.). C2C12 myotubes were treated as indicated in results and the cellular fractions were prepared using standard methods. Protein was measured by BCA kit (Thermo Scientific). […] Visualization and chemiluminescent detection was conducted using BioRad ChemiDoc instrumentation and software (Bio-Rad Laboratories, Hercules, Calif.) and band intensity was assessed using Image Lab 4.0 (Bio-Rad Laboratories, Hercules, Calif.), with correction for background and loading controls. P-AMPK was detected at 61-66 kDA and Sirt1 was detected at 104-115 kDA.

In the next assay the test system is Sirt1. Description: Sirt1 protein expression Western blot in myotubes. Format: cell-based, mouse. Conditions: C2C12 myotubes, FIG. 12. The procedure: (§2) Cell Culture: C2C12 and 3T3-L1 preadipocytes (American Type Culture Collection) were plated at a density of 8000 cells/cm^2 (10 cm^2 dish) and grown in Dulbecco's modified eagle's medium (DMEM) containing 10% fetal bovine serum (FBS), and antibiotics (growth medium) at 37° C. in 5% CO2. Confluent 3T3-L1 preadipocytes were induced to differentiate with a standard differentiation medium consisting of DMEM medium supplemented with 10% FBS, 250 nM dexamethasone, 0.5 mM 3-Isobutyl-1-methylxanthine (IBMX) and 1% penicillin-streptomycin. Preadipocytes were maintained in this differentiation medium for 3 days and subsequently cultured in growth medium. Cultures were re-fed every 2-3 days to allow >90% cells to reach fully differentiation before conducting chemical treatment. […]
Western blot: The Phospho-AMPKα (Thr172)- and Sirt1 (mouse specific)-antibody was obtained from Cell Signaling (Danvers, Mass.). […] Protein was measured by BCA kit (Thermo Scientific). […] Visualization and chemiluminescent detection was conducted using BioRad ChemiDoc instrumentation and software (Bio-Rad Laboratories, Hercules, Calif.) and band intensity was assessed using Image Lab 4.0 (Bio-Rad Laboratories, Hercules, Calif.), with correction for background and loading controls. P-AMPK was detected at 61-66 kDA and Sirt1 was detected at 104-115 kDA.
In general terms: Immunoblotting shows a protein as a band on a membrane.

In assay [3] the test system is 3T3-L1 adipocytes. Description: Intracellular Ca2+ by fura-2 imaging in adipocytes. In kind it is cell-based. The procedure: Cell culture: 3T3-L1 pre-adipocytes were incubated at a density of 8000 cells/cm^2 (10 cm^2 dish) and grown in the absence of insulin in Dulbecco's modified Eagle's medium (DMEM) containing 10% FBS and antibiotics (1% penicillin-streptomycin)(adipocyte medium) at 37° C. in 5% CO2 in air. Confluent pre-adipocytes were induced to differentiate with a standard differentiation medium consisting of DMEM-F10 (1:1, vol/vol) medium supplemented with 1% fetal bovine serum (FBS), 250 nM dexamethasone (DEXA), isobutylmethylxanthine (IBMX) (0.5 mM) and antibiotics. Pre-adipocytes were maintained in this differentiation medium for 3 days (unless specifically indicated) and subsequently cultured in adipocyte medium. Cultures were re-fed every 2-3 days to allow 90% cells to reach fully differentiation before treatment.
Intracellular Ca^2+ ([Ca^2+]i): [Ca^2+]i was measured using a fura-2 dual wavelength fluorescence imaging system. Adipocytes were plated and differentiated in 35 mm dishes with glass coverslips (P35G-0-14-C, MatTek Corporation). Prior to [Ca^2+]i measurement, cells were preincubated in serum-free medium overnight and rinsed with Hepes Balanced Salt Solution (HBSS) containing the following components (in mM): NaCl 138, CaCl2 1.8, MgSO4 0.8, NaH2PO4 0.9, NaHCO3 4, glucose 5, glutamine 6, Hepes 20, and bovine serum albumin 1%. Cells were loaded with fura-2 acetoxymethyl ester (AM) (10 μM) in the same buffer for 2 hr at 37° C. in a dark incubator with 5% CO2. To remove extracellular dye, cells were rinsed with HBSS 3 times and then postincubated at room temperature for an additional 1 hr for complete hydrolysis of cytoplasmic fura-2 AM. The dishes with dye-loaded cells were mounted on the stage of Nikon TMS-F fluorescence inverted microscope with a Cohu 4915 CCD camera. Fluorescent images were captured alternatively at excitation wavelength of […] with an emission wavelength of 520 nm. [Ca^2]i was calculated using a standard ratio equation. Each analysis evaluated responses of 8-10 representative whole cells. Images were analyzed with InCytIm2 version 4.62 imaging software (Intracellular Imaging, Cincinnati, Ohio). Images were calibrated using a fura-2 calcium imaging calibration kit (Molecular Probes, Eugene, Oreg.) to create a calibration curve in solution, and cellular calibration was accomplished using digitonin (25 μM) and pH 8.7 Tris-EGTA (100 mM) to measure maximal and minimal [Ca^2+]i levels.

The subject of assay [4] is C2C12 myotubes. Briefly: Glucose utilization (extracellular acidification) in myotubes. In kind it is cell-based. Conditions: FIG. 9. As to the method:
as §2
(§3) Glucose Utilization: In the absence of a fatty acid source and oxidative metabolism, glycolysis and subsequent lactate production results in extracellular acidification, which was also measured using a Seahorse Bioscience XF24 analyzer. […] Data for each sample were normalized to the pre-glucose injection baseline for that sample and expressed as % change from that baseline. The area under of the curve of extracellular acidification change from baseline for each sample was the calculated and used for subsequent analysis.

Assay [5] deals with 3T3-L1 adipocytes. Description: Glucose utilization (extracellular acidification) in adipocytes. Format: cell-based. Conditions: FIG. 10. As to the method:
as §2, §3

For assay [6], the system named is 3T3-L1 adipocytes. Description: Fatty acid oxidation (O2 consumption response to palmitate) in adipocytes. In kind it is cell-based. Conditions: FIG. 8, % change from control. As to the method: as §2
Fatty acid oxidation: Cellular oxygen consumption was measured using a Seahorse Bioscience XF24 analyzer (Seahorse Bioscience, Billerica, Mass.) in 24-well plates at 37° C., as described by Feige et al (1) with slight modifications. […] Data for each sample were normalized to the pre-palmitate injection baseline for that sample and expressed as % change from that baseline. […] The area under of the curve of O2 consumption change from baseline for each sample was then calculated and used for subsequent analysis.

Where [7] appears, read: FIG. 4/5, 24 hours, leucine, valine, isoleucine 0.5 mM, B6 100 nM as pyridoxal phosphate.

Structures are written as SMILES. Marks after values point to notes of the source that are not given here.

Regarding `CC(C)[C@H](N)C(=O)O` [valine], in the assay on C2C12 myotubes [1] (setting [7]), the “increase in fatty acid oxidation” value is on record as “small change in fatty acid oxidation when compared to control”. In addition, the “increase in mitochondrial biogenesis (mitochondrial biomass)” value (shortened to “increase in mitochondrial biogenesis”) in the assay with C2C12 myotubes [2] was “no significant effect”. The “AMPK activation (Phosphorylated AMPK Thr172), increase” value in the assay on Phospho-AMPKα (Thr172) was “Neither treatment with leucine, valine, nor B6 alone exerted any significant effect”.
Regarding `Cc1ncc(COP(=O)(O)O)c(C=O)c1O` [PLP, pyridoxal phosphate], the “increase in fatty acid oxidation” value in the assay on C2C12 myotubes [1] (setting [7]) is on record as “no significant independent effect”. In addition, the “Sirt1 protein levels, increase” value in the assay on Sirt1 is on record as “unaffected”. Besides, the “Intracellular Ca2+” value in the assay with 3T3-L1 adipocytes [3] (PLP 50 nM) was 133.2^c ± nM; in the assay with 3T3-L1 adipocytes [3] (PLP 100 nM) it was 96.3^b ± nM. The “increase in glucose utilization” value with C2C12 myotubes [4] and in the assay with 3T3-L1 adipocytes [5] was “no independent effect” in each case. The “AMPK activation (Phosphorylated AMPK Thr172), increase” value with Phospho-AMPKα (Thr172) is given as “Neither treatment with leucine, valine, nor B6 alone exerted any significant effect”.
Consider `CC[C@H](C)[C@H](N)C(=O)O` [isoleucine], for which the “increase in fatty acid oxidation” value with 3T3-L1 adipocytes [6] was “small change from baseline”; in the assay on C2C12 myotubes [1] (setting [7]), “small change in fatty acid oxidation when compared to control”. Further, the “increase in mitochondrial biogenesis” value in the assay with C2C12 myotubes [2] was “no significant effect”.
Turning to `CN(C)C(=N)N=C(N)N` [metformin], the “increase in fatty acid oxidation” value in the assay with C2C12 myotubes [1] (FIG. 6/7, metformin 100 μM) is given as “comparable effect”. In the assay with C2C12 myotubes [2], the “increase in mitochondrial biogenesis” value is “effect similar to leucine”.
